According to patent US20230151100A1, “Method of Selecting Patients for Treatment with a Combination of an AXL Inhibitor and an Immune Checkpoint Modulator” (BERGENBIO ASA, priority 2020, published 2023):

What was measured:
[1] = test system: Bone marrow derived BMDCs; experiment: BMDC co-culture with irradiated KPL9-3-1 tumor cells, IFN beta ELISA; format: cell-based, mouse; conditions: BGB324 40 nM, 24 h; supernatant ELISA; versus DMSO
Experimental: Bone marrow derived BMDCs (2×10^5) were co-cultured with […] irradiated KPL9-3-1 tumor cells (2×10^6), with or without BGB324 treatment (40 nM). After 24 h, the cell supernatant was collected for analysis. The concentration of […] was measured by VeriKine-HS Mouse IFN Beta Serum ELISA kit (PBL Assay Science, Cat #42410), or VerKine Human IFN Beta ELISA kit (PBL Assay Science, Cat #414101) in accordance with the manufacturer's instructions. The plates were visualized by adding 100 μL of TMB solution and read at 450 nm using the SPECTROstarNano (BMG LABTECH).
The cells were treated with BGB324 or DMSO.

[2] = test system: OT-1 CD8^+ T cells; experiment: BMDC co-culture with OT-1 CD8^+ T cells stimulated with ovalbumin, TCF1 expression by flow cytometry; format: cell-based, mouse; conditions: co-cultures of BMDC with OT-1 CD8^+ T cells stimulated by ovalbumin
[3] = test system: Kras^G12D, p53^−/− STK11^−/− mutant (KPL9-3) mouse lung cancer-derived cells; experiment: Subcutaneous KPL9-3 tumors in immune-competent mice, tumor volume; format: in vivo, mouse (C57Bl/6); conditions: anti-PD1 10 mg/kg i.p. twice a week for two weeks, BGB324 50 mg/kg oral gavage twice daily, or both
Experimental: Kras^G12D, p53^−/− mutant (KP9-1) or Kras^G12D, p53^−/− STK11^−/− mutant (KPL9-3) mouse lung cancer-derived cell lines were prepared using standard techniques known in the art. KP9-1 or KPL9-3 cells were propagated at sub-confluence and split on a regular basis.
Each animal was weighed before cell implantation. Injection of cells was performed after anesthetizing of the mice. The cell lines discussed above were injected subcutaneously into immune-competent mice (C57Bl/6 strain).
Mice were treated with either placebo or anti-PD1 therapeutic (200 μg/mouse, intraperitoneal, twice a week for two weeks).Tumor volume was assessed using hand held callipers and mouse weight were followed.
The Kras^G12D, p53^−/− STK11^−/− mutant (KPL9-3) mouse lung cancer-derived cells described above were implanted subcutaneously in immune-competent mice (C57Bl/6 strain) using the same protocol as described above.
Mice were treated with either placebo, anti-PD1 therapeutic (10 mg/kg, intraperitoneal, twice a week for two weeks), BGB324 (50 mg/kg, oral gavage, twice daily) or a combination of both drugs. Tumor volumes were measured.

[4] = test system: TCF1^+PD-1^+ CD8^+ T cells in KPL9-3-1 tumors; experiment: Tumor microenvironment analysis of KPL9-3-1 tumors (flow cytometry, IHC); format: in vivo, mouse (C57BL/6J)
Experimental: (§1) Control group were treated with control IgG (10 mg/kg) and vehicle (50 mg/kg). Tumor growth was measured every 3 days. […] The ratio of observed cell numbers to random expectation estimated by Roie index through chi-square test. +++ (Roien, P<0.05) represents highly enriched, ++ (1.2≤Ro/e<3, P<0.05) represents enriched, + (0.8≤Ro/e<1.2, P<0.05) represents weakly enriched, − (0<Ro/e<0.8, P<0.05) represents not significant or reduced.
KPL9-3-1 allograft were implanted into mice as described above. 5 mice were assigned into each treatment group. 10 mg/kg anti-PD-1 (BioXCell, Cat #BE0146) treatment was given intraperitoneally on day 0, day 4 and day 7 after treatment. Control group of PD-1 treatment was treated with 10 mg/kg rat IgG2a isotype control (BioX Cell, Cat #BE0089) at the same day of PD-1 treatment, intraperitoneally. BGB324 were given through oral gavage twice daily, with a dose of 50 mg/kg.
For tumor growth measurement experiment, mice were treated for 3 weeks. For tumor microenvironment analysis, mice were treated for 7 days, when the tumor sizes in each treatment group are within 2-fold differences.Seven days after tumor inoculation, mice were treated with either BGB324 or anti-PD-1 alone, or in combination.

[5] = test system: CD8^+ T cell clusters in KPL9-3-1 TME; experiment: scRNAseq with paired TCR sequencing of CD8^+ T cell clusters in KPL9-3-1 tumors; format: in vivo, mouse; conditions: observed versus expected cell number per cluster
Experimental: The immune landscape of the tumors from each treatment group was assessed using scRNAseq of immune cells. Sequenced scRNA-seq samples were processed through Cellranger pipelines (v3.1.0). Cellranger count was used to align reads to mouse reference genome (mm10, 2020-A, from 10× Genomics) and generate single cell feature counts for single library.
For scTCR-seq data, TCR reads were aligned to reference genome and TCR annotation was performed using the 10×cellranger vdj pipeline with provided reference (cellranger-vdj-GRCm38-alts-ensemb1-4.0.0). Overall, 94% of T cells in scRNA-seq data were assigned a TCR and more than 70% had at least one full-length productive CDR3 for both TRA and TRB. The clonotype of each T cell was represented by the beta CDR3 sequences, and clone sizes ranged from 1 cell to 580 cells. Cellranger aggr were applied next to aggregate each sample library for grouped analysis with same effective sequencing depth. Seurat (3.2.1) package was used for downstream analysis.
To determine the potential lineage differentiation between those T cell populations with high TCR sharing. Monocle (version 2.0) (PMID: 24658644) was used to investigate transcriptional and developmental trajectories concerning different CD8+ or CD4+ T cell clusters. The data of raw counts together with cluster annotations were taken as input to monocle, and the default parameters were set to run data normalization and dimension reduction. Next, Monocle leaned the kinetics of gene expression by using the reversed graph embedding approach and places each cell along an inferred pseudotime trajectory. According to the assumption that the trajectory has a tree structure, functional “State” is identified based on the segment of the tree-like structure. […]
Treatment enriched cells in each cluster were calculated and compared based on the number of cells observed divided by expected number of cells in each cluster (FIG. 8D).

[6] = test system: KPL9-3-1 tumor cells; experiment: KPL9-3-1 subcutaneous allograft tumor growth; format: in vivo, mouse (C57BL/6J); conditions: KPL9-3-1 tumors; BGB324 50 mg/kg oral gavage twice daily, anti-PD-1 10 mg/kg i.p., alone or in combination; 3 weeks
Experimental: as §1
For subcutaneous allografts, 1×10^6 cells in 100 ul phosphate buffered saline (PBS) were injected into the right dorsal flanks of 6-8 wks old mice. For xenografts growing on humanized mice, 1.5×10^6 cells in 100 ul phosphate buffered saline (PBS) were injected into the right dorsal flanks of reconstituted humanized mice.
Tumor bearing mice were randomly assigned into treatment groups when the tumor grew to around 100-150 mm^3. For each treatment group, 5 mice were assigned. 10 mg/kg anti-PD-1 (BioXCell, Cat #BE0146) treatment was given intraperitoneally on day 0, day 4 and day 7 after innoculation. The control group was treated with 10 mg/kg rat IgG2a isotype control (BioX Cell, Cat #BE0089) at the same day of PD-1 treatment, intraperitoneally. For the tumor growth measurement experiment, mice were treated for 3 weeks. […] Tumor volumes were measured by length (a), width (b) and height (h) in every 3 days and calculated as tumor volume=abh. […]

[7] = test system: Kras^G12D, p53 WT STK11^−/− mutant human A549 lung cancer cells; experiment: A549 xenografts in humanized mice, tumor volume; format: in vivo; conditions: anti-PD1 10 mg/kg i.p. 3 dosages, BGB324 50 mg/kg oral gavage twice daily for 3 weeks, or both
Experimental: Human non-small cell lung cancer (NSCLC) cells Kras^G12D, p53 WT STK11^−/− mutant human A549 lung cancer cells were cultured using standard protocols.
Each animal was weighed before cell implantation. Injection of the cells was performed after anesthetizing of the mice. Kras^G12D, p53 WT STK11^−/− mutant human A549 lung cancer cells were implanted subcutaneously in humanized immune-deficient mice.
Mice were treated with either placebo, anti-PD1 therapy (10 mg/kg, intraperitoneal, 3 dosages), BGB324 (50 mg/kg, oral gavage, twice daily for 3 weeks) or a combination of both drugs.

[8] = test system: non-small cell lung cancer; experiment: Earlier lines of therapy of trial patients 234008 and 211105 (case history); format: in vivo, human
[9] = test system: TCF1^+PD-1^+ cells among CD8^+ TILs; experiment: Intratumoral injection of IFNα, TCF1^+PD-1^+ CD8^+ TILs; format: in vivo, mouse; conditions: IFNα 200 ng intratumoral, 48 h
Experimental: Tumor tissues were excised and digested with 2 mg/mL Collagenase A (Sigma, Cat #SCR136) and 1 mg/ml DNase I (Roche, Cat #11284932001) under 37° C., 150 rpm shaking speed for 45 min. Digested materials then were transferred to a 70 μm cell strainer to remove clumped cells. Digested cells were washed twice with FACs buffer and ready for flow cytometry analysis.

For `Nc1nc(Nc2ccc3c(c2)CC[C@@H](N2CCCC2)CC3)nn1-c1cc2c(nn1)-c1ccccc1CCC2` [BGB324, 1-(6,7-dihydro-5H-benzo[6,7]cyclohepta[1,2-c]pyridazin-3-yl)-N^3-((7-(S)-pyrrolidin-1-yl)-6,7,8,9-tetrahydro-5H-benzo[7]annulene-2-yl)-1H-1,2,4-triazole-3,5-diamine], the “secretion of Interferon type 1β (IFNβ)” value [1] was “increased”, the “TCF1^+ expression on CD8^+ T cells” value [2] was “increased” and the “tumor sensitivity to therapy (tumor volume)” value [3] was “resistant”. The “infiltration of TCF1+PD-1^+ CD8^+ T cells” value ([4]; flow cytometry, day 7 after treatment started) was “increased”, the “TCF1^+PD-1^+ CD8^+ T cell presence in the tumor” value ([4]; immunohistochemistry) was “enhanced” and the “distribution of CD8+ cells relative to tumor islands” value ([4]; immunohistochemistry) was “large population of CD8+ cells, but these are grouped together, excluded from the tumor islands”. The “enrichment of clonal expanded CD8^+ T cells (unique TCRs)” value [5] was “enriched CD8^+ T cells expressing unique TCRs (clonal expanded) significantly”, the “enrichment of exhaustive effector CD8^+ T cells” value [5] was “also enriched” and the “enrichment of stem like T cells” value [5] was “also enriched”. For the same compound, the tumor growth control [6] was “Neither single treatment resulted in tumor growth control” and the “tumor sensitivity to therapy (tumor volume)” value [7] was “resistant”.

With “pembrolizumab: anti-PD-1 antibody, immune checkpoint inhibitor” the “duration of clinical benefit before progression” value ([8]; patient 211105, monotherapy after first-line progression) was 18 months.

carboplatin and paclitaxel was tested, and the “duration of response to first-line therapy before progression” value ([8]; patient 234008) was 22 months and the “response to first-line therapy” value ([8]; patient 234008, before enrolling in the study) was “partial response”.

In the case of IFNα [reference compound], the “TCF1^+ expression on CD8^+ T cells” value [2] is reported as “increased” and the “TCF1^+PD-1^+ cells among CD8^+ TILs after intratumoral injection” value [9] is reported as “phenocopied”.
